The text below walks through data of ChEMBL document CHEMBL1201862, “PubChem BioAssay data set” (2004).

Some test systems named below: A498; SK-OV-3; SF-295; A549; SF-539; OVCAR-3; SF-268; RPMI-8226; NCI-H226; SK-MEL-5; MDA-MB-231; HOP-92; MOLT-4; OVCAR-4; SW-620; COLO 205; T47D; PC-3; KM12.
Assay in all cases: NCI-60 cell line screen, 48 h

Each structure is given as a SMILES string.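 Five compound concentrations were applied to cells in 96-well plates for 48 hours; endpoints were derived by simple linear interpolation of the resulting dose-response curve. GI50 marks 50% less growth.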 Calls of active or inactive are those of the source. Cut-off read from the data, not from the text of the source: active = GI50 up to about 1.1 µM and inactive = higher.

As to `c1cc(CCN2CCCCC2)ccn1`, the GI50 with A498, in the experiment with SK-OV-3, in the experiment on SF-295, in the experiment on A549, in the experiment on SF-539 and with OVCAR-3 was > 100 µM (inactive) throughout. The GI50 with SF-268, in the experiment with RPMI-8226, in the experiment on NCI-H226, in the experiment with SK-MEL-5, with MDA-MB-231 and in the experiment on HOP-92 was > 100 µM (inactive) throughout. In addition, the GI50 in the experiment on MOLT-4 was 35.2 µM (inactive); with OVCAR-4 it was > 100 µM (inactive); with SW-620, > 100 µM (inactive); with COLO 205, > 100 µM (inactive); in the experiment with T47D, > 100 µM (inactive); in the experiment with PC-3, > 100 µM (inactive). Moreover, the GI50 with KM12 was > 100 µM (inactive).

Take `O=[N+]([O-])c1cc(F)ccc1Sc1ccccc1`: the GI50 with A498, in the experiment on SK-OV-3, in the experiment on SF-295, in the experiment on A549, in the experiment on SF-539 and with OVCAR-3 was > 10 µM (inactive) throughout. Further, the GI50 in the experiment on SF-268, with RPMI-8226, in the experiment with NCI-H226, with SK-MEL-5, in the experiment with MDA-MB-231 and in the experiment on HOP-92 was > 10 µM (inactive) in each case. The GI50 with MOLT-4, in the experiment with OVCAR-4, in the experiment on SW-620, with COLO 205, with T47D and in the experiment with PC-3 was > 10 µM (inactive) each time. Also, the GI50 in the experiment with KM12 is > 10 µM (inactive).

Take `CCc1nc(N)nc(N)c1-c1ccc(N(C)Cc2ccccc2)c([N+](=O)[O-])c1`: the GI50 with A498 was 0.552 µM (active); in the experiment on SK-OV-3, 7.62 µM (inactive); in the experiment with SF-295 it was 0.0522 µM (active); with A549 it was < 0.01 µM (active); in the experiment on SF-539, 0.14 µM (active); with OVCAR-3, 0.697 µM (active). Moreover, the GI50 in the experiment with SF-268 is 0.303 µM (active); in the experiment on RPMI-8226, 0.191 µM (active); in the experiment with NCI-H226 it was 3.31 µM (inactive); with SK-MEL-5 it was 0.022 µM (active); with MDA-MB-231, 7.67 µM (inactive); in the experiment on HOP-92, 0.962 µM (active). Also, the GI50 in the experiment on MOLT-4 was 0.059 µM (active); in the experiment on OVCAR-4 it was 5.15 µM (inactive); in the experiment on SW-620, 0.0155 µM (active); in the experiment with COLO 205 it was 0.522 µM (active); in the experiment with T47D, 1.71 µM (inactive); with PC-3 it was 0.0557 µM (active). The GI50 in the experiment with KM12 was 0.191 µM (active).

With `OC(c1cc(-c2ccc(Cl)cc2)nc2ccccc12)C1CCCCN1` (stereo not given), the GI50 in the experiment with A498 is 1.82 µM (inactive); in the experiment with SK-OV-3 it was 2.16 µM (inactive); with SF-295, 1.94 µM (inactive); with A549, 1.84 µM (inactive); with SF-539, 1.79 µM (inactive); in the experiment on OVCAR-3, 2.07 µM (inactive). For the same molecule, the GI50 with SF-268 was 2.02 µM (inactive); in the experiment on RPMI-8226, 1.37 µM (inactive); with NCI-H226, 4.21 µM (inactive); with SK-MEL-5 it was 2.24 µM (inactive); in the experiment with MDA-MB-231, 1.95 µM (inactive); with HOP-92, 3.37 µM (inactive). The GI50 in the experiment with MOLT-4 is 2.37 µM (inactive); in the experiment with OVCAR-4 it was 2.28 µM (inactive); in the experiment with SW-620, 1.88 µM (inactive); in the experiment on COLO 205 it was 1.73 µM (inactive); in the experiment with T47D, 1.77 µM (inactive); in the experiment on PC-3 it was 1.97 µM (inactive). Moreover, the GI50 in the experiment with KM12 was 2.26 µM (inactive).

As for `NS(=O)(=O)c1ccc(NNc2c3ccccc3nc3ccccc23)cc1`, the GI50 in the experiment on A498 is 18.3 µM (inactive); in the experiment on SK-OV-3 it was 14.8 µM (inactive); in the experiment with SF-295, 12 µM (inactive); with A549 it was 15.3 µM (inactive); with SF-539 it was 12.2 µM (inactive); in the experiment with OVCAR-3 it was 10.2 µM (inactive). Besides, the GI50 is 12.2 µM (inactive) with SF-268; 9.4 µM (inactive) with RPMI-8226; 10.3 µM (inactive) in the experiment with NCI-H226; 12.7 µM (inactive) with SK-MEL-5; 15.6 µM (inactive) with MDA-MB-231; 14.1 µM (inactive) with HOP-92. The GI50 is 6.04 µM (inactive) in the experiment with MOLT-4; 10.5 µM (inactive) in the experiment on OVCAR-4; 10.9 µM (inactive) in the experiment on SW-620; 7.29 µM (inactive) in the experiment on COLO 205; 7.52 µM (inactive) with T47D; 11.5 µM (inactive) in the experiment with PC-3. In addition, in the experiment on KM12, the GI50 was 11.6 µM (inactive).

Regarding `O=C1C2=C(CC3=C(C2)CS(=O)(=O)C3)C(=O)C2=C1CC1=C(C2)CS(=O)(=O)C1`, the GI50 in the experiment with A498 was 43.7 µM (inactive); with SK-OV-3 it was 38.5 µM (inactive); in the experiment with SF-295, 26.7 µM (inactive); in the experiment on A549 it was > 90.2 µM (inactive); with SF-539 it was 36.3 µM (inactive); in the experiment with OVCAR-3, 3.35 µM (inactive). For the same molecule, the GI50 in the experiment with SF-268 is > 26.4 µM (inactive); in the experiment with RPMI-8226 it was 28.6 µM (inactive); with NCI-H226, 24.4 µM (inactive); in the experiment with SK-MEL-5, 16.3 µM (inactive); in the experiment on MDA-MB-231, 9.59 µM (inactive); with HOP-92, > 46.7 µM (inactive). The GI50 was 23.9 µM (inactive) in the experiment on MOLT-4; 10.9 µM (inactive) with OVCAR-4; 18 µM (inactive) in the experiment with SW-620; 13 µM (inactive) in the experiment on COLO 205; 2.34 µM (inactive) in the experiment on T47D; 10.8 µM (inactive) in the experiment with PC-3. The GI50 in the experiment on KM12 is > 19.7 µM (inactive).

With `C=C1CC2(CC(c3ccccc3C)OC(c3ccccc3C)C2)OC1=O` (stereo not given), the GI50 was 8.99 µM (inactive) in the experiment on A498; 11.6 µM (inactive) in the experiment with SK-OV-3; 15.8 µM (inactive) in the experiment on SF-295; 8.47 µM (inactive) with A549; 1.62 µM (inactive) with SF-539; 1.78 µM (inactive) in the experiment with OVCAR-3. The GI50 is 1.83 µM (inactive) with SF-268; 0.473 µM (active) with RPMI-8226; 7.78 µM (inactive) in the experiment on NCI-H226; 1.86 µM (inactive) in the experiment on SK-MEL-5; 1.6 µM (inactive) in the experiment with MDA-MB-231; 1.76 µM (inactive) in the experiment with HOP-92. Moreover, the GI50 in the experiment with MOLT-4 is 2.77 µM (inactive); with OVCAR-4, 2.27 µM (inactive); in the experiment with SW-620, 1.73 µM (inactive); with COLO 205 it was 1.9 µM (inactive); in the experiment with T47D it was 1.72 µM (inactive); in the experiment on PC-3, 2.21 µM (inactive). The GI50 in the experiment on KM12 is 2.18 µM (inactive).

With `CN(C)CCN1C(=O)CC[C@@]2(C)C1=CC[C@@H]1[C@@H]2CC[C@@]2(C)[C@H]1CC[C@]2(C)O`, the GI50 with A498, with SK-OV-3, with SF-295, in the experiment with A549, with SF-539 and in the experiment on OVCAR-3 was > 100 µM (inactive) throughout. Besides, the GI50 in the experiment with SF-268, with RPMI-8226, in the experiment on NCI-H226, in the experiment on SK-MEL-5, in the experiment with MDA-MB-231 and with HOP-92 was > 100 µM (inactive) in each case. Besides, the GI50 in the experiment on MOLT-4, in the experiment with OVCAR-4, in the experiment with SW-620, in the experiment on COLO 205, in the experiment with T47D and in the experiment with PC-3 was > 100 µM (inactive) each time. The GI50 in the experiment on KM12 was > 100 µM (inactive).

`Clc1ccc(-c2nnc(-c3cccc4ccccc34)o2)cc1Cl`: the GI50 with A498, in the experiment on SK-OV-3, in the experiment on SF-295, with A549, in the experiment with SF-539 and with OVCAR-3 was > 100 µM (inactive) in each case. In addition, the GI50 was > 100 µM (inactive) in the experiment with SF-268; > 100 µM (inactive) in the experiment on RPMI-8226; > 100 µM (inactive) in the experiment on NCI-H226; > 100 µM (inactive) with SK-MEL-5; > 100 µM (inactive) with MDA-MB-231; 17.6 µM (inactive) in the experiment on HOP-92. The GI50 with MOLT-4 was 59.7 µM (inactive); with OVCAR-4, 98.4 µM (inactive); in the experiment with SW-620 it was > 100 µM (inactive); with COLO 205, > 100 µM (inactive); with T47D it was > 100 µM (inactive); with PC-3, > 100 µM (inactive). In addition, the GI50 with KM12 is > 100 µM (inactive).

As for `FC(F)(F)c1ccc2c(-c3cc[nH]c3)ccnc2c1`, the GI50 in the experiment with A498 is 23.8 µM (inactive); in the experiment on SK-OV-3, > 100 µM (inactive); with SF-295, 30 µM (inactive); with A549 it was 26 µM (inactive); in the experiment on SF-539, 37.8 µM (inactive); in the experiment with OVCAR-3 it was 27.4 µM (inactive). Further, the GI50 in the experiment with SF-268 is > 10 µM (inactive); in the experiment with RPMI-8226 it was 34.2 µM (inactive); in the experiment with NCI-H226, 36.9 µM (inactive); in the experiment with SK-MEL-5 it was 20.7 µM (inactive); in the experiment with MDA-MB-231, 40.1 µM (inactive); in the experiment with HOP-92, 52.4 µM (inactive). Besides, the GI50 in the experiment on MOLT-4 was 19.4 µM (inactive); with OVCAR-4, 53.2 µM (inactive); with SW-620, 36.1 µM (inactive); in the experiment with COLO 205 it was 23.6 µM (inactive); in the experiment with T47D it was > 100 µM (inactive); in the experiment on PC-3 it was 36.6 µM (inactive). For the same molecule, the GI50 with KM12 is 31.8 µM (inactive).
